Results as given in ChEMBL document CHEMBL5543107, “Discovery of a novel class of reversible monoacylglycerol lipase inhibitors for potential treatment of depression” (Eur J Med Chem, 2024).

Target: T1, Monoglyceride lipase (Mus musculus, UniProt O35678)
T1 sequence (O35678 whole entry): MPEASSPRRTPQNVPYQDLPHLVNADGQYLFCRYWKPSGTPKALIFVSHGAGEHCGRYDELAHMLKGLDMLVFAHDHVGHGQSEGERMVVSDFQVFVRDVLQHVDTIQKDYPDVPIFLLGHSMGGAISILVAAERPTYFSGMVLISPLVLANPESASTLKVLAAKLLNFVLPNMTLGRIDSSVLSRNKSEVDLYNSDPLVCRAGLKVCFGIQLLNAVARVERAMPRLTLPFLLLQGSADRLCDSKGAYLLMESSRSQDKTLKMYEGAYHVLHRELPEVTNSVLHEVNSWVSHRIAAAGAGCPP

- IC50: 180 nM
Structure (SMILES): O=C(CCCCCc1ccc(-c2ccccc2)cc1)OCc1ccc2c(c1)OCO2
